According to ChEMBL document CHEMBL1201862, “PubChem BioAssay data set” (2004):
Calls of active or inactive are those of the source.

Columns and labels:
Paired box protein Pax-8 = Paired box protein Pax-8 (Homo sapiens, UniProt Q06710); test: inhibitors of PAX8-driven TPO luciferase reporter, dose response, RMG-I cells, cherry-pick (AID 687027); assay type: functional, cell-based;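 also: luciferase reporter driven by Pax8 target thyroperoxidase promoter measured by SteadyGlo luminescence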
[1] = A2780 ovarian cancer cell cytotoxicity, dose response, cytotoxicity control, plate reader, dry powder samples (AID 743046); assay type: functional, cell-based
[2] = NIH:OVCAR-3 ovarian cancer cell cytotoxicity, dose response, PAX8 inhibitor project, plate reader, dry powder samples (AID 743044); assay type: functional, cell-based
[3] = IGROV1 ovarian cancer cell cytotoxicity, dose response, PAX8 inhibitor project, plate reader, dry powder samples (AID 743043); assay type: functional, cell-based; details: IGROV-1
[4] = cytotoxicity in OVCAR8 ovarian cancer cells, dose response, PAX8 project, cell-based, plate reader, dry powder samples (AID 743197); assay type: functional; details: OVCAR-8
[5] = P. falciparum 3D7-ScDHODH growth inhibitors, dose response, SYBR Green, dry powder samples (AID 1159570); assay type: functional, cell-based;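 also: parasite growth measured after 72 hours of compound exposure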
[6] = HepG2 cell cytotoxicity, dose response, cytotoxicity control, plate reader, dry powder samples (AID 1159569); assay type: functional, cell-based;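 also: inhibitor potency with signal falling toward the positive control level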
[7] = P. falciparum Dd2 growth inhibitors, dose response, SYBR Green, cherry-picked samples (AID 1159567); assay type: functional, cell-based
[8] = P. falciparum Dd2 growth inhibitors, dose response, SYBR Green, dry powder samples (AID 1159566); assay type: functional, cell-based;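 also: potency for growth inhibition with lower SYBR green DNA signal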
[9] = P. falciparum ATP4 D1247Y mutant growth inhibitors, dose response, NITD609-resistant line, SYBR Green, dry powder (AID 1159571); assay type: functional, cell-based;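 also: parasites synchronized at ring stage by sorbitol before testing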
[10] = molecular target: T1, Luciferin 4-monooxygenase (Photinus pyralis, UniProt P08659); test: Counter Screen for Luciferase-based Assay Positives. [Related pubchem assays: 620, 618, 411 ]
T1 sequence (P08659 whole entry): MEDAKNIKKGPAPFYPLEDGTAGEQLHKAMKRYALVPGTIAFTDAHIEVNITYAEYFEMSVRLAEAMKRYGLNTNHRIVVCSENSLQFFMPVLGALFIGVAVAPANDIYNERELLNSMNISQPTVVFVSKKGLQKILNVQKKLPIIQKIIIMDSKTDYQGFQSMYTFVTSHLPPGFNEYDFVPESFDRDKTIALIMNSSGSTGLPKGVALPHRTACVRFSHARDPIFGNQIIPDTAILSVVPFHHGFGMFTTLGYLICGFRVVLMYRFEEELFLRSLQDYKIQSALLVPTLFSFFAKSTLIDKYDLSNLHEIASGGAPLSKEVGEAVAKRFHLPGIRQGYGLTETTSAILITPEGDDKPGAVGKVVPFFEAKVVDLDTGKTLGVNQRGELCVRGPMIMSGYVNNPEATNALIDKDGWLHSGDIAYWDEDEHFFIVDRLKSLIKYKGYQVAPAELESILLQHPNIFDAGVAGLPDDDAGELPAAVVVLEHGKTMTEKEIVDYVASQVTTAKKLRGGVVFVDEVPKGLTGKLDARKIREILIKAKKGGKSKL

HT-1080 = test: cytotoxicity in HT1080 fibrosarcoma cells, cell-based, fluorescence readout (AID 620); assay type: functional; details: Homo sapiens
[11] = P. falciparum late gametocyte killing, dose response, luminescence (AID 1117278); assay type: functional, cell-based;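 also: gametocytes exposed to compound for 24 hours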
[12] = Jurkat T cell cytotoxicity, dose response, cytotoxicity control for P. falciparum gametocyte viability project, luminescence (AID 1117277); assay type: functional, cell-based;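 also: potency reflects loss of cellular ATP meaning fewer viable cells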
Prothrombin = Prothrombin (Homo sapiens, UniProt P00734); test: Thrombin 1536 HTS Dose Response Confirmation. [Related pubchem assays: 1046 (Thrombin 1536 HTS; hits were confirmed in this assay)]; assay type: functional
[13] = molecular target: Disintegrin and metalloproteinase domain-containing protein 17 (Homo sapiens, UniProt P78536); test: exosite inhibitors of ADAM17, dose response, biochemical (AID 743260)
Sequence of Disintegrin and metalloproteinase domain-containing protein 17 (P78536 whole entry, the tested form may be a part): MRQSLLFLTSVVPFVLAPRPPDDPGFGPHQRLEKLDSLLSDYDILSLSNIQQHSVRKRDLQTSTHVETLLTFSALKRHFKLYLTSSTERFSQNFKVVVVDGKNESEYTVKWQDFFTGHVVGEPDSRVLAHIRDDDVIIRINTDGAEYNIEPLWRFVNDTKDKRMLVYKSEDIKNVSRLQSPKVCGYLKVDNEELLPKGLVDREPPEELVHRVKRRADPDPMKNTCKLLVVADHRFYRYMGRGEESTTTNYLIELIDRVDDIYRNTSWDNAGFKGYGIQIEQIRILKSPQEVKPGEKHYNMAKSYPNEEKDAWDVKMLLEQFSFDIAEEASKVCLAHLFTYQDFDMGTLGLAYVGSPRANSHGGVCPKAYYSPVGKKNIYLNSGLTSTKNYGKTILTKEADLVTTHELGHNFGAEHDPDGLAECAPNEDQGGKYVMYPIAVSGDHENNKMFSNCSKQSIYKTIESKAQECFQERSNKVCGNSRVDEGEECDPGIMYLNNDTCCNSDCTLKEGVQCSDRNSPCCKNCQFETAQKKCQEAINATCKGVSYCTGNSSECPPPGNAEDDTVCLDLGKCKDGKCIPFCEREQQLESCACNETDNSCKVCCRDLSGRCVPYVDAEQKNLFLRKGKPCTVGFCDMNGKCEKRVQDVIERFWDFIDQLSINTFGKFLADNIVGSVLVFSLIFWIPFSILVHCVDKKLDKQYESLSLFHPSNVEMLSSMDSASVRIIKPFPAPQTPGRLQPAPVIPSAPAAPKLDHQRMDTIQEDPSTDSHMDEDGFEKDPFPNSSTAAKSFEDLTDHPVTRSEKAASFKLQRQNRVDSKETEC

[14] = ADAM10 protease inhibitors, dose response, selectivity assay for ADAM17 exosite inhibitor project, biochemical, FRET peptide substrate, recombinant human ADAM10 (AID 743259);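 also: ADAM10 enzyme cleaving a FRET peptide substrate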
[15] = inhibitors of intracellular T. cruzi replication, confirmation, NIH3T3 host cells, beta-gal luminescence (AID 2044); assay type: functional, cell-based;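 also: intracellular parasites grown in NIH/3T3 mouse fibroblasts as host cells; luminescent beta-galactosidase reporter signal from transgenic T. cruzi replicating inside host cells; inhibitors lower the luminescence signal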
[16] = cytotoxicity toward NIH3T3 fibroblasts, dose response, counter-screen, cell-based, ATP luminescence, mouse fibroblasts (AID 2010); assay type: functional;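 also: cells exposed to compound for about 90 hours before reading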
[17] = Luminescence Cell-Based Dose Response HTS to Identify Inhibitors of 5'UTR Stem-Loop Driven Prion Protein mRNA Translation in H4 Neuroglioblastoma Cells. [Related pubchem assays: 1827 (Project Summary), 1813 (Primary HTS)]; assay type: functional
[18] = molecular target: T2, Heat shock factor protein 1 (Mus musculus, UniProt P38532); test: inhibition of MG132-induced HSE-luciferase signal, confirmation, cell-based, NIH3T3, luminescence, dose retest (AID 2382); assay type: functional;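 also: NIH3T3 fibroblasts with HSF1-driven luciferase reporter stressed by proteasome inhibitor MG132; luminescence from HSF1-driven luciferase expression after 8 hours of MG132 stress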
T2 sequence (P38532 whole entry): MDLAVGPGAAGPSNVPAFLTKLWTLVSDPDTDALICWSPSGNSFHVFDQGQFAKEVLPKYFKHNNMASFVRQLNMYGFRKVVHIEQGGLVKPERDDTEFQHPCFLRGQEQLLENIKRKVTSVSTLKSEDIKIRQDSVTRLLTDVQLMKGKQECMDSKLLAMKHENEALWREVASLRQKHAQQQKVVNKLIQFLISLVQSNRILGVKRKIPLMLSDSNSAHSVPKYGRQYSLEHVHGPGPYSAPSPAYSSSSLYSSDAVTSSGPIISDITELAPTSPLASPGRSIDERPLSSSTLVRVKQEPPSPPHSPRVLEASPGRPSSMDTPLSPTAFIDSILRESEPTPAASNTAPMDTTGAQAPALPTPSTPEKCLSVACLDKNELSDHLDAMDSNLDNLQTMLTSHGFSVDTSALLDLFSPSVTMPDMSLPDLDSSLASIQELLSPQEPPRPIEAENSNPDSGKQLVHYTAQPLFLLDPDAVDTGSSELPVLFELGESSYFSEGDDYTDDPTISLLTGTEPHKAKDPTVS

[19] = inhibitors of SNCA 5'UTR-driven reporter translation, confirmation, H4 neuroglioma cells, luminescence (AID 1988); assay type: functional, cell-based
[20] = molecular target: T1, Luciferin 4-monooxygenase; test: firefly luciferase enzyme inhibitors, dose response, biochemical, luminescence (AID 1891)
[21] = Luminescence Cell-Based Dose Confirmation HTS to Identify Inhibitors of Platelet Dense Granule Release. [Related pubchem assays: 1663 (Primary HTS), 1678 (Summary of Project)]; assay type: functional
[22] = molecular target: Mitogen-activated protein kinase 10 (Homo sapiens, UniProt P53779); test: Dose response biochemical screening assay for inhibitors of c-Jun N-Terminal Kinase 3 (JNK3). [Related pubchem assays: 746 ]
Sequence of Mitogen-activated protein kinase 10 (P53779 whole entry): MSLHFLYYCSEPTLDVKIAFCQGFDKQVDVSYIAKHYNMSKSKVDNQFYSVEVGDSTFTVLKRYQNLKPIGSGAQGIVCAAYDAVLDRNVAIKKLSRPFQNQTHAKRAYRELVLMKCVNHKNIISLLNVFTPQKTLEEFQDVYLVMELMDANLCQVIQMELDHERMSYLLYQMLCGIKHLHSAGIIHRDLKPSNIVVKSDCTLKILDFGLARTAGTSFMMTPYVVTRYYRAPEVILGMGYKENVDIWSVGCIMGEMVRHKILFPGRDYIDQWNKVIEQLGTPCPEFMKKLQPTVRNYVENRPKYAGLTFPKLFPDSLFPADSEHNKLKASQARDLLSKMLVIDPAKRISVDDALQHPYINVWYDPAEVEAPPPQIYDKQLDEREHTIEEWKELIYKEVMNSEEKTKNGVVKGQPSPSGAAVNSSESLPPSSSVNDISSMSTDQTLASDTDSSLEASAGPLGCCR

[23] = microbe, parasite or virus in culture; assay type: functional; details: Mycobacterium tuberculosis
[24] = molecular target: FAD-linked sulfhydryl oxidase ALR (Homo sapiens, UniProt P55789); test: inhibitors of human ALR sulfhydryl oxidase, dose response, biochemical, H2O2 detection, luminescence, cherry-pick (AID 493248)
Sequence of FAD-linked sulfhydryl oxidase ALR (P55789 whole entry): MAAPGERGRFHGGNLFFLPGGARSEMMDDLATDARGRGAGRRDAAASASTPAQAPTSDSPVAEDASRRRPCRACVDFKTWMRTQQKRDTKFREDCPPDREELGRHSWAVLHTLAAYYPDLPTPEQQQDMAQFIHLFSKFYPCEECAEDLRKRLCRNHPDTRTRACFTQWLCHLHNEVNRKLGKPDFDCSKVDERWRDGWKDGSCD

INS1 = test: beta cell apoptosis inhibitors, cytokine rescue, dose response, luminescence, retest (AID 449756); assay type: functional, cell-based; details: Rattus norvegicus;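 also: cell death triggered by IL-1 beta plus TNF-alpha plus IFN-gamma mixture; protective hits raise ATP signal compared with cytokine alone wells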
[25] = inhibitors of HIV Env-driven cell fusion, dose response, cherry-pick (AID 652057); assay type: functional, cell-based
[26] = CEM21 lymphoblast cell cytotoxicity, dose response, cytotoxicity control for viral fusion inhibitor project, CellTiter-Glo luminescence, cherry-picked (AID 652042); assay type: functional, cell-based;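 also: potency for signal decrease meaning cytotoxicity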
[27] = ZM109 Env clade C HIV-1 fusion inhibitors, dose response, HeLa effector, CEM target cells, luciferase, cherry-pick (AID 652058); assay type: functional, cell-based
[28] = off-target signal loss in HeLa-CEM21 co-culture – HeLa F-luc CTL cells, cherry-picked, counter-screen for HIV-1 Env fusion inhibitor project, dose response (AID 652040); assay type: functional, cell-based;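 also: potency for signal decrease marking cytotoxic or nonspecific inhibition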
[29] = inhibitors of clade B AD8 Env fusion, dose response, cell-based, cherry-pick (AID 652062); assay type: functional;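 also: luciferase signal from cell-cell fusion driven by HIV-1 clade B AD8 Env; potency is for inhibitors of fusion seen as a drop in luminescence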
[30] = Luminescence-based cell-based high throughput dose response assay to identify activators of the DAF-12 from the parasite S. stercoralis (ssDAF-12).; assay type: functional
[31] = molecular target: T3, Oxysterols receptor LXR-beta (Homo sapiens, UniProt P55055); test: LXR agonists, Gal4 luciferase reporter, dose response, counter-screen for ssDAF-12 agonist project, cell-based, luminescence, HEK293, S. stercoralis campaign (AID 720737); assay type: functional; details: read-out: IC50 (the source's name)
T3 sequence (P55055 whole entry): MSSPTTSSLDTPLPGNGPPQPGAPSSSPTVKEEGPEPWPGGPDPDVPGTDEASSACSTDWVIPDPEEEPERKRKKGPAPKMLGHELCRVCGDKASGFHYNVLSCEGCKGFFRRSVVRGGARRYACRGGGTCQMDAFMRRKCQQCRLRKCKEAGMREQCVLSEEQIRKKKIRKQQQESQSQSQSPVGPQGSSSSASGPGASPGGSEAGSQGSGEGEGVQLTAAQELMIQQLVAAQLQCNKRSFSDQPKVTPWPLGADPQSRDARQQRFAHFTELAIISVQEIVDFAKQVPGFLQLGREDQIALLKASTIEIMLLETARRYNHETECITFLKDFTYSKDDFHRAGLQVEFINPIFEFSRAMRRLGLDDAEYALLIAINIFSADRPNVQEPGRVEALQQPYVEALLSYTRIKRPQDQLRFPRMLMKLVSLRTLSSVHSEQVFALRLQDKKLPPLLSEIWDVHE

Estrogen receptor = molecular target: T4, Estrogen receptor (Homo sapiens, UniProt P03372);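 also: potency for inhibiting coactivator peptide recruitment to the receptor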
T4 sequence (P03372 whole entry): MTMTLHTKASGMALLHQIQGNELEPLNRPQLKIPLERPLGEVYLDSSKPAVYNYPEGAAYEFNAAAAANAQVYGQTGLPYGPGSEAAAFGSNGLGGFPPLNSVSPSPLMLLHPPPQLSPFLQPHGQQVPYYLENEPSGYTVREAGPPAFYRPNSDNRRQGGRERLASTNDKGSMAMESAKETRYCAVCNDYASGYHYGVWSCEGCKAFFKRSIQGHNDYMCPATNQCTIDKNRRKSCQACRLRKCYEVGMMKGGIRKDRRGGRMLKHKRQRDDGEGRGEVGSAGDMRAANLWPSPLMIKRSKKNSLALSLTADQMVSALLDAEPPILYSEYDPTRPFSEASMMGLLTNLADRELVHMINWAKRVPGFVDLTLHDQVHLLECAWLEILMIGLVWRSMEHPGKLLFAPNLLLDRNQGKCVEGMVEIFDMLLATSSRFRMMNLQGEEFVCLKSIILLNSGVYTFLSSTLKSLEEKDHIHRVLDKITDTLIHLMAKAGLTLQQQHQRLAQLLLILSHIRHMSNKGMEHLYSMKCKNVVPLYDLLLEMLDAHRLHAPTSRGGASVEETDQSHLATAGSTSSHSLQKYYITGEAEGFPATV

Sequence of Paired box protein Pax-8 (Q06710 whole entry): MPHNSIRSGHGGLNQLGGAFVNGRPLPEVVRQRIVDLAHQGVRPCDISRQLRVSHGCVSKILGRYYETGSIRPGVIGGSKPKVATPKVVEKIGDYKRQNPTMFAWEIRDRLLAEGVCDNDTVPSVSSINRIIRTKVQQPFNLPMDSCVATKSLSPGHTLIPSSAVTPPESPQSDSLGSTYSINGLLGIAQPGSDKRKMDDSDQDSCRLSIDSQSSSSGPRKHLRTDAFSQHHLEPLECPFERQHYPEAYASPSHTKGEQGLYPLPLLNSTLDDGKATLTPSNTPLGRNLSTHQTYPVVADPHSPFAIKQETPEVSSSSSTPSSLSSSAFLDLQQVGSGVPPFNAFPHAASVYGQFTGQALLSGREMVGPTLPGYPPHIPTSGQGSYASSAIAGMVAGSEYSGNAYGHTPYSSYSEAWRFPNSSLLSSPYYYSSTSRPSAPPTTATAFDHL

## COc1ccc2c3c(n(C)c2c1)[C@H](CO)N(C(=O)Nc1ccc(F)cc1)CC31CCN(C(=O)c2ccc3c(c2)OCO3)CC1
Paired box protein Pax-8
  AC50: 6.51 µM (active)
[1]
  AC50: 22.5 µM (active)
[2]
  AC50: 28.6 µM (active)
[3]
  AC50: 57.7 µM (active)
[4]
  AC50: 4.33 µM (active)
[5]
  AC50: 1.2 µM (active)
[6]
  AC50: > 100 µM (inactive)
[7]
  AC50: 1.79 µM (active)
[8]
  AC50: 0.892 µM (active)
[9]
  AC50: 0.75 µM (active)

## Cc1cccc(-n2ncc3c(N4CCCC4)ncnc32)c1
[10]
  EC50: 1.02 µM (active)
HT-1080
  EC50: > 50 µM (not active)

## CCc1ccc(CN(C)Cc2nc(COc3ccccc3)no2)nc1
[11]
  IC50: > 109 µM (inactive)
[12]
  IC50: > 83.3 µM (inactive)

## COC(=O)CN1C(=O)C(O)(CC(=O)c2ccc(Cl)cc2)c2ccccc21 (configuration not stated)
Prothrombin
  IC50: > 50 µM (not active)

## O=C1c2ccccc2C(O)N1Cc1cccs1 (configuration not stated)
[11]
  IC50: > 109 µM (inactive)
[12]
  IC50: > 83.3 µM (inactive)

## CC(=O)Oc1ccc(C(=O)Nc2cccc(C(=O)c3ccc(C)c(C)c3)c2)cc1
[13]
  IC50: > 69.5 µM (inactive)
[14]
  IC50: > 69.5 µM (inactive)

## CC(C)Nc1nc(NC(C)C)nc(N(C#N)CCOc2ccc(Cl)cc2Cl)n1
[15]
  EC50: 1.4 µM (active)
[16]
  EC50: > 60 µM (not active)
[13]
  IC50: > 69.5 µM (inactive)
[14]
  IC50: 13.5 µM (inactive)

## COc1ccc(/N=C/C2=C(O)c3ccccc3C2=O)c(OC)c1
[10]
  EC50: 50.2 µM (active)
[17]
  EC50: 11.7 µM (active)
[18]
  EC50: 2.42 µM (active)
[19]
  EC50: 8.03 µM (active)
[20]
  EC50: 1.21 µM (active)
[21]
  EC50: 3.47 µM (active)
HT-1080
  EC50: > 50 µM (not active)

## COc1ccc2nc(NC(=O)Cc3ccc(OC)c(S(=O)(=O)N4CCOCC4)c3)sc2c1
[22]
  IC50: 28.1 µM (not active)

## CN(C)S(=O)(=O)c1cccc(NC(=O)c2cc(-c3cccs3)nn2-c2cccc(Cl)c2)c1
[13]
  IC50: > 69.5 µM (inactive)
[14]
  IC50: > 69.5 µM (inactive)

## Cc1ccc(NC(=O)c2ccc3ccccc3n2)cc1S(=O)(=O)N1CCOCC1
Prothrombin
  IC50: 40.9 µM (active)

## CC(=O)Nc1ccc(S(=O)(=O)Nc2ccc(N3CCCCC3)cc2)cc1
[23]
  CC50: 27.3 µM (active)
[24]
  AC50: 2.07 µM (active)
INS1
  AC50: 3.64 µM (active)
[25]
  AC50: 10.4 µM (active)
[26]
  AC50: 23.4 µM (active)
[27]
  AC50: 1.18 µM (active)
[28]
  AC50: 22.6 µM (active)
[29]
  AC50: 17.8 µM (active)

## c1ccc(-c2n[nH]c3c2CCC3)cc1
[22]
  IC50: 50.9 µM (not active)

## Cc1ccccc1-c1ccc2c(c1)O[C@H](CN(C)C(=O)Nc1ccc(C(F)(F)F)cc1)[C@H](C)CN([C@H](C)CO)S2(=O)=O
Paired box protein Pax-8
  AC50: 9.06 µM (active)
[1]
  AC50: 14.3 µM (active)
[4]
  AC50: > 70 µM (inactive)

## Cc1ccc(NCc2nc3ccccc3n2C)cc1
[30]
  IC50: > 67.5 µM (inactive)
[31]
  EC50: > 67.5 µM (inactive)

## Cc1nc2cccc(C(=O)NCc3ccccc3)c2o1
Estrogen receptor
  IC50: 48.4 µM (not active)
[22]
  IC50: 45.5 µM (not active)

## COC(=O)c1ccccc1NC(=O)NCc1ccncc1
[30]
  IC50: > 67.5 µM (inactive)
[31]
  EC50: > 67.5 µM (inactive)
